Converted amounts (≈) assume the structure as drawn.
Columns and labels:
[1] = tested on: Streptococcus mutans ATCC 25175; test: Antimicrobial microtiter-plate MIC assay; type: cell-based; conditions: for MIC Streptococcus mutant: 24 h, 37 °C; for MIC: Streptococcus mutans, ATCC25175, 24 h, read-out: MIC Streptococcus mutant
Procedure: (§1) The antimicrobial activity of the newly synthesized compounds (2–9) was evaluated against three model pathogenic microorganisms as follows: Streptococcus mutans ATCC 25175 (Gram-positive bacterium); Pseudomonas aeruginosa ATCC 27853 (Gram-negative bacterium); and Candida albicans ATCC 10231 (fungi-like unicellular organism). After cultivating the three tested pathogens overnight in LB broth, 100 µL of each tested organism (10^6 CFU/mL) was added separately to 100 µL of the serially diluted test compounds (5–80 µg) in a 96-well tissue culture plate and incubated at 37 °C for 24 h. Eventually, microbial growth was measured at 600 nm, and the results are presented in the form of MIC (Table 4). Two antibacterial reference drugs, ampicillin and ciprofloxacin, and one antifungal drug, clotrimazole, were incorporated into the experiments.

[2] = tested on: Pseudomonas aeruginosa ATCC 27853; test: Antimicrobial microtiter-plate MIC assay; type: cell-based; conditions: 24 h, 37 °C; for MIC: Pseudomonas aeruginosa, ATCC27853
Procedure: as §1

[3] = tested on: Candida albicans ATCC 10231; test: Antimicrobial microtiter-plate MIC assay; type: cell-based; conditions: for MIC: ATCC10231; for MIC / MIC Candida albicans: 24 h, 37 °C
Procedure: as §1

HFB-4 cells = test: MTT cytotoxicity assay, normal human melanocytes; type: cell-based; conditions: 48 h; for IC50: Melanocyte
Procedure: (§2) The human melanocytes (HFB-4) cells, hepatoma (HepG-2) cells, and colon carcinoma (Caco-2) cells were obtained from American Type Culture Collection (ATCC, USA). The cytotoxicity of the newly synthesized compounds (at various concentrations) was determined using the 3-[4, 5-dimethylthiazol]-2, 5-diphenyltetrazolium bromide method (MTT assay)[59] against HFB-4 cells (normal human melanocytes), HepG-2 cells (hepatoma), and Caco-2 cells (colon carcinoma). Normal and cancer cells (1.0 × 10^4) were cultured in sterile 96-well microplates, and incubated for 24 h in DMEM (Lonza, USA) supplemented with 10% fetal bovine serum (Gibco, USA) for HFB-4 and Caco-2 cells or in an RPMI-1640 medium (Lonza, USA) supplemented with 10% FBS for HepG-2 cells. After 24 h of incubation, different doses of the tested synthesized compounds ([…]) were added in triplicate to all cells and incubated for another 48 h in 5% CO2. After washing the cells 3 times with fresh media, to remove dead cells and debris, a solution of MTT (Sigma -Aldrich, 0.5 mg/mL) was added to each well and further incubated for 2–5 h at 37 °C. Afterward, the MTT solution was decanted and 200 µL of DMSO was added. The optical density was measured at 570 nm using a microplate reader (BMG LabTech, Germany), where the cells’ relative viability (%) was estimated using the following equation: viability of cells (%) = [A1 − A0/AU − A0] × 100, where A1 is the absorbance of the test compound, A0 is the absorbance of the blank, and AU is the absorbance of untreated cells (control).
(§3) The antitumor activity of the synthesized compound was determined by calculating the IC50 value (half maximal inhibitory concentration) using Graph Pad Prism 6.0 software. The value of IC50 indicates the derivative concentration that causes 50% cell death, whereas the value of the selectivity index (SI), indicating the ratio of the IC50 value of normal cells versus the IC50 value of tumor cells, was also included as reported by[60],[61].

Caco-2 cells = test: MTT antitumor assay, colon carcinoma cells; type: cell-based; conditions: for IC50 Caco-2 / IC50: MTT, 48 h; for SI Caco-2: ratio of IC50 of normal cells (HFB-4) versus IC50 of tumor cells; for IC50: Homo sapiens, Caco-2, 48 h
Procedure: as §2, §3

Pseudomonas aeruginosa = test: Microbial-biofilm inhibition, tissue-culture plate technique (TCP); type: cell-based; conditions: 25 µg/mL, 24 h
Procedure: (§4) The activity of the newly synthesized compounds against microbial biofilm formation was estimated through the tissue-culture plate technique (TCP) as follows: the three above-mentioned pathogens, Streptococcus mutans, Pseudomonas aeruginosa, and Candida albicans were cultivated overnight in LB broth at 37 °C. Afterward, 200 µL of each diluted organism (10^6 CFU/mL) was inoculated separately (in triplicate) into 96-well tissue culture plates and incubated overnight at 37 °C. The free planktonic cells were removed, after the incubation period, by flipping the plate and washing each well three times with phosphate-buffered-saline (PBS), pH 7.1. To each well, 175 µL of fresh LB broth was added along with 25 µL of the tested compound (25 µg/mL final concentrations). The plates were reincubated at 37 °C for another 24 h, washed with PBS buffer pH 7.1 three times, and dried for 5 min at 50 °C. The formed biofilm was stained with crystal violet solution (0.1% w/v) for 5 min. The excess stain was decanted, and the stained biofilm was solubilized with 200 µL of glacial acetic acid (30% v/v), where the developed blue color was measured at 590 nm. The results are expressed as relative inhibition (%) compared to untreated groups (control). Controls were prepared by culturing the three pathogens on LB medium without any tested compounds.

HepG-2 cells = test: MTT antitumor assay, hepatoma cells; type: cell-based, human; conditions: for IC50 HepG-2 / IC50: MTT, 48 h; for SI HepG-2: ratio of IC50 of normal cells (HFB-4) versus IC50 of tumor cells; for IC50: Homo sapiens, HepG2, 48 h
Procedure: as §2, §3

Streptococcus mutans = test: Microbial-biofilm inhibition, tissue-culture plate technique (TCP); type: cell-based; conditions: 25 µg/mL, 24 h
Procedure: as §4

Candida albicans = test: as above; type: cell-based; conditions: 24 h, relative to untreated; for inhibition at 25 µg/mL: Candida albicans
Procedure: as §4

β-catenin gene = test: qRT-PCR gene expression in HepG-2 and Caco-2 cells; type: cell-based, human; conditions: IC50 concentrations, 2 days
Procedure: The effects of the potent antitumor derivatives (4, 6, and 8) on the expression level of some tumor regulating genes were elucidated through quantitative real-time PCR (qRT- PCR) and compared to 5-fluorouracil (5-FU) as a reference antitumor drug. Five genes were assessed, including the tumor oncogene (Bcl-2), tumor suppressor gene (p53), matrix metalloproteinase gene (MMP-9), vascular endothelial growth factor gene (VEGF), and beta-catenin protein gene (β-catenin), in HepG-2 and Caco-2 cells, before and after treatment for 2 days with IC50 concentrations for compounds 4, 6, and 8. Following the extraction of total RNA from the tested cells, using the Gene JET RNA Purification Kit (Thermo Scientific, USA), cDNA synthesis was performed according to the cDNA Synthesis Kit protocol (Thermo Scientific, USA). qRT PCR was performed using the SYBR green kit and specific primers (Forward/Reverse) as follows: 5′-[…]-3'/5'-TCG GTCTCCTAAAAGCAGGC-3′ for the Bcl-2 gene, 5′-TAACAGTTCCTGCATG GG CG GC-3′/5′-[…]-3′ for p53, 5'-CTGCGTATTTCCATT CATC-3'/5'-CCTTGGGTCAGGTTTAGAG-3' for the MMP-9 gene, 5'-GGCTTTACT GCTGTACCTCC-3'/5'-CAAATGCTTTCTCCGCTCT-3' for the VEGF gene, and 5'-CATATGCGGCTGCTG TTCTA-3'/5'-CCGAAAG CCGTTTCTTGTAG-3' for the β-catenin gene. The upregulation and/or downregulation of the expression of the tested genes in Caco-2 and HepG-2 cells was determined by using the equation 2^−ΔΔCT[60].

## CC1(C)S[C@@H]2[C@H](NC(=O)[C@H](N)c3ccccc3)C(=O)N2[C@H]1C(=O)O [Ampicillin, ampicillin, reference compound]
[1]
  MIC Streptococcus mutant: 13.5 ± 0.234 µg/mL (≈ 38.6 µM)
  MIC: 13.5 µg/mL (≈ 38.6 µM)

## O=C(O)c1cn(C2CC2)c2cc(N3CCNCC3)c(F)cc2c1=O [Ciprofloxacin, ciprofloxacin, reference compound]
[2]
  MIC Pseudomonas aeruginosa: 18.7 ± 0.475 µg/mL (≈ 56.4 µM)
  MIC: 18.7 µg/mL (≈ 56.4 µM)

## Clc1ccccc1C(c1ccccc1)(c1ccccc1)n1ccnc1 [Clotrimazole, clotrimazole, reference compound]
[3]; Candida albicans
  MIC: 14.5 ± 1.25 µg/mL (≈ 42 µM)

## NS(=O)(=O)c1ccc(Nc2csc(N3NC4=C(CCCC4)C3c3ccccc3)n2)cc1 (stereo not drawn) [Compound 2]
HFB-4 cells
  IC50 HFB-4: 110.8 ± 1.54 µg/mL (≈ 244 µM)
[3]
  MIC Candida albicans: 52.77 ± 0.7862 µg/mL (≈ 116 µM)
[1]
  MIC Streptococcus mutant: 49.71 ± 0.5849 µg/mL (≈ 110 µM)
[2]
  MIC Pseudomonas aeruginosa: 40.13 ± 2.109 µg/mL (≈ 88.5 µM)
Caco-2 cells
  IC50 Caco-2: 6.06 ± 1.26 µg/mL (≈ 13.4 µM)
  SI Caco-2: 18.28 ± 0.25
Pseudomonas aeruginosa
  biofilm inhibition activity Pseudomonas aeruginosa (in words): high biofilm inhibition activity
Pseudomonas aeruginosa; relative to untreated
  biofilm inhibition Pseudomonas aeruginosa: approximately 58.5%
HepG-2 cells
  IC50 HepG-2: 6.37 ± 0.36 µg/mL (≈ 14 µM)
  SI HepG-2: 17.39 ± 0.24

## N#CC1=C(N)N(c2ccc(S(N)(=O)=O)cc2)c2nc(N3NC4=C(CCCC4)C3c3ccccc3)sc2C1c1ccccc1 (stereo not drawn) [Compound 3, 4-(5-amino-6-cyano-7-phenyl-2-(3-phenyl-1,3,4,5,6,7-hexahydro-2H-indazol-2-yl)thiazolo[4,5-b]pyridin-4(7H)-yl) benzenesulfonamide]
HFB-4 cells
  IC50 HFB-4: 55.59 ± 1.58 µg/mL (≈ 91.5 µM)
[3]
  MIC Candida albicans: 40.74 ± 0.5511 µg/mL (≈ 67 µM)
[3]; listed as compound 3
  MIC Candida albicans: 40.74 µg/mL (≈ 67 µM)
[3]; Candida albicans
  antifungal activity as share of clotrimazole activity: 36%
[1]
  MIC Streptococcus mutant: 11.12 ± 0.4232 µg/mL (≈ 18.3 µM)
[1]; listed as derivative 3
  MIC Streptococcus mutant: 11.2 µg/mL (≈ 18.4 µM)
[2]
  MIC Pseudomonas aeruginosa: 18.29 ± 2.114 µg/mL (≈ 30.1 µM)
[2]; listed as derivative 3
  MIC Pseudomonas aeruginosa: 18.29 µg/mL (≈ 30.1 µM)
Caco-2 cells
  IC50 Caco-2: 7.74 ± 0.81 µg/mL (≈ 12.7 µM)
  SI Caco-2: 7.18 ± 0.20
Streptococcus mutans
  antibiofilm formation activity Streptococcus mutans (in words): had antibiofilm formation activities
Streptococcus mutans; relative to untreated
  biofilm inhibition Streptococcus mutans: around 64%
Pseudomonas aeruginosa
  biofilm inhibition activity Pseudomonas aeruginosa (in words): high biofilm inhibition activity
Candida albicans; 25 µg/mL
  biofilm inhibition Candida albicans: 69%
HepG-2 cells
  IC50 HepG-2: 7.72 ± 0.38 µg/mL (≈ 12.7 µM)
  SI HepG-2: 7.20 ± 0.20

## N#Cc1c(N)sc2sc(N3NC4=C(CCCC4)C3c3ccccc3)nc12 (stereo not drawn) [Compound 5, 5-amino-2-(3-phenyl-1,3,4,5,6,7-hexahydro-2H-indazol-2-yl)thieno[3,2-d]thiazole-6-carbonitrile]
HFB-4 cells
  IC50: 97.7 ± 2.41 µg/mL (≈ 257 µM)
[3]; Candida albicans
  MIC: 59 ± 1.28 µg/mL (≈ 156 µM)
[1]
  MIC: 43.52 ± 0.359 µg/mL (≈ 115 µM)
[2]
  MIC: 56.5 ± 2.19 µg/mL (≈ 149 µM)
Caco-2 cells
  IC50: 7.59 ± 0.24 µg/mL (≈ 20 µM)
  SI Caco-2: 12.87 ± 0.32
Pseudomonas aeruginosa
  biofilm inhibition activity Pseudomonas aeruginosa (in words): high biofilm inhibition activity
Candida albicans
  inhibition at 25 µg/mL: 68%
HepG-2 cells
  IC50: 7.57 ± 0.36 µg/mL (≈ 19.9 µM)
  SI HepG-2: 12.90 ± 0.32

## O=c1[nH]cc(F)c(=O)[nH]1 [Compound 5-FU, 5-fluorouracil, reference compound]
β-catenin gene
  expression of the β-catenin gene: stimulated its expression

## N=C1CC(=O)Oc2nc(N3NC4=C(CCCC4)C3c3ccccc3)sc21 (stereo not drawn) [Compound 7, 7-imino-2-(3-phenyl-1,3,4,5,6,7-hexahydro-2H-indazol-2-yl)-6,7-dihydro-5H-pyrano [2,3-d]thiazol-5-one]
HFB-4 cells
  IC50: 105 ± 6.2 µg/mL (≈ 286 µM)
[3]; Candida albicans
  MIC: 58.2 ± 1.21 µg/mL (≈ 159 µM)
[1]
  MIC: 22.4 ± 0.317 µg/mL (≈ 61.2 µM)
[2]
  MIC: 43.9 ± 2.04 µg/mL (≈ 120 µM)
Caco-2 cells
  IC50: 9.2 ± 0.27 µg/mL (≈ 25.1 µM)
  SI Caco-2: 11.39 ± 0.67
Candida albicans
  inhibition at 25 µg/mL: 66%
HepG-2 cells
  IC50: 9.53 ± 0.32 µg/mL (≈ 26 µM)
  SI HepG-2: 10.99 ± 0.65

## CCOC(=O)C1=C2N=C(N3NC4=C(CCCC4)C3c3ccccc3)SC2C(=S)S1 (stereo not drawn) [Compound 9, ethyl 2-(3-phenyl-1,3,4,5,6,7-hexahydro-2H-indazol-2-yl)-6-thioxo-6,6a-dihydrothieno [3,4-d]thiazole-4-carboxylate]
HFB-4 cells
  IC50: 65.65 ± 0.29 µg/mL (≈ 148 µM)
[3]; Candida albicans
  MIC: 46.6 ± 1.2 µg/mL (≈ 105 µM)
[1]
  MIC: 48.77 ± 0.246 µg/mL (≈ 110 µM)
[2]
  MIC: 61.5 ± 1.83 µg/mL (≈ 139 µM)
Caco-2 cells
  IC50: 5.95 ± 0.1 µg/mL (≈ 13.4 µM)
  SI Caco-2: 11.04 ± 0.05
Candida albicans
  inhibition at 25 µg/mL: ~79%
HepG-2 cells
  IC50: 5.23 ± 0.25 µg/mL (≈ 11.8 µM)
  SI HepG-2: 12.55 ± 0.06
